Measurements reported in patent publication US10329289B2, “6,7-dihydro-5H-pyrrolo[3,4-B]pyridin-5-one allosteric modulators of the M4 muscarinic acetylcholine receptor” (Merck Sharp & Dohme Corp., priority 2015, dated 2019).

Target: T1, human M4 muscarinic acetylcholine receptor (Homo sapiens, UniProt P08173)
T1 construct: expressed in transfected cells; host or cells: CHO-K1
T1 sequence (P08173 1-479): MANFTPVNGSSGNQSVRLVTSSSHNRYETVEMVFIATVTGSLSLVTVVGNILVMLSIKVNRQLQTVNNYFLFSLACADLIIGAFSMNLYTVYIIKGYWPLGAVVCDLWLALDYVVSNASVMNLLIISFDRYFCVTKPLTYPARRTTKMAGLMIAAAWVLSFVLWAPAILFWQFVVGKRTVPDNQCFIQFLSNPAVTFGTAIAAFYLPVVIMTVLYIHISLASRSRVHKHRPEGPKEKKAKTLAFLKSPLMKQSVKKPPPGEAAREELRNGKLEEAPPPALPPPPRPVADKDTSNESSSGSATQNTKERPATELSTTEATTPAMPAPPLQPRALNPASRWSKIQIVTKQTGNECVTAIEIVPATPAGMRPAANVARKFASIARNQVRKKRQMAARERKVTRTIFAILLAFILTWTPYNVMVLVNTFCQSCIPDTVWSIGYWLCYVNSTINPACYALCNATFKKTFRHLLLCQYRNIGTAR
Assay: human FLIPR-based M4 PAM assay (Ca2+ mobilization, CHO-K1 cells with human M4 receptor and Gαqi5)
Assay type: cell-based
Settings: acetylcholine at 20% of maximum response, read-out: M4 PAM IP
Experimental: In a typical experiment the M4 muscarinic acetylcholine receptor modulating activity of the compounds of the present invention was determined in accordance with the following experimental method. CHO-K1 cells stably transfected with human M4 receptor and chimeric G-protein Gαqi5 (Coward P, et al., Analytical Biochemistry, 270:242-248 (1999)) are thawed from liquid N2 storage, resuspended in growth medium, plated in black, clear bottom 384 well plates, and incubated 16-20 hours at 37° C., 5% CO2. On the day of assay, growth medium is removed, the cells are washed 2 times with wash buffer, and cells are incubated in dye loading buffer at 37° C., 5% CO2 for ˜1 hour. […] Next, 10 uL of acetylcholine is added (final concentration calculated so as to achieve 20% of the maximum acetycholine response), and the fluorescence reading is continued for 3.5 min. In some cases, a third addition of acetylcholine (final concentration calculated to achieve 70% of the maximal acetylcholine response) is performed. The resulting dose response curves are fit to a 4 parameter logistic equation and the final result is determined as the inflection point (IP) of the curve
CHO-K1 cells stably transfected with human M4 receptor and chimeric G-protein Gαqi5 are thawed from liquid N2 storage, resuspended in growth medium, plated in black, clear bottom 384 well plates, and incubated 16-20 hours at 37° C., 5% CO2.
On the day of assay, growth medium is removed, the cells are washed 2 times with wash buffer, and cells are incubated in dye loading buffer at 37° C., 5% CO2 for ˜1 h. […] Next, 10 uL of acetylcholine is added (final concentration calculated so as to achieve 20% of the maximum acetycholine response), and the fluorescence reading is continued for 3.5 min. In some cases, a third addition of acetylcholine (final concentration calculated to achieve 70% of the maximal acetylcholine response) is performed.

Row | EC50 | Molecule
1 | 0.168 µM | 3-methyl-2-(4-(3,3,3- trifluoro-2- hydroxypropoxy)piperi- din-1-yl)-6,7-dihydro- 5H-pyrrolo[3,4- b]pyridin-5-one [Example 179]
2 | 0.03 µM | Cc1cc2c(nc1N1CC[C@@H](Oc3cccc(C#N)c3)[C@@H](F)C1)CNC2=O (relative stereo) [Example 7, 3-((cis-3-fluoro-1-(3-methyl-5-oxo-6,7-dihydro-5H-pyrrolo[3,4-b]pyridin-2-yl)piperidin-4-yl)oxy)benzonitrile]
3 | 0.086 µM | COc1ccc(O[C@@H]2CCN(c3nc4c(cc3C)C(=O)NC4)C[C@H]2C)cn1 (single isomer, unassigned) [Example 2A]
4 | 0.734 µM | COc1ccc(O[C@H]2CCN(c3nc4c(cc3C)C(=O)NC4)C[C@@H]2C)cn1 (single isomer, unassigned) [Example 2B]
5 | 0.637 µM | Cc1cc2c(nc1N1CCC(OC[C@@H]3C[C@H]3C(F)(F)F)CC1)CNC2=O (single isomer, unassigned) [Example 3A, 3-methyl-2-(4-(((trans)-2-(trifluoromethyl)cyclopropyl)methoxy)piperidin-1-yl)-6,7-dihydro-5H-pyrrolo[3,4-b]pyridin-5-one]
6 | 0.082 µM | Cc1cc2c(nc1N1CCC(Oc3ccc(O[C@H](C)CO)nc3)CC1)CNC2=O (single isomer, unassigned) [Example 141A]
7 | 0.055 µM | Cc1cc2c(nc1N1CCC(Oc3ccc(O[C@@H](C)CO)nc3)CC1)CNC2=O (single isomer, unassigned) [Example 141B]
8 | 0.124 µM | Cc1cc2c(nc1N1CCC(Oc3ccc([C@@H](C)O)cc3)CC1)CNC2=O (single isomer, unassigned) [Example 150A]
9 | 0.197 µM | Cc1cc2c(nc1N1CCC(Oc3ccc([C@H](C)O)cc3)CC1)CNC2=O (single isomer, unassigned) [Example 150B]
10 | 0.452 µM | Cc1cc2c(nc1N1CCC(Oc3ccccc3)C(F)(F)C1)CNC2=O (single isomer, unassigned) [Example 158A, cis-2-(3,3-Difluoro-4-phenoxypiperidin-1-yl)-3-methyl-6,7-dihydro-5H-pyrrolo[3,4-b]pyridin-5-one]
11 | 0.017 µM | Cc1cc2c(nc1N1CCC(Oc3ccccc3)C(F)(F)C1)CNC2=O (single isomer, unassigned) [Example 158B, trans-2-(3,3-Difluoro-4-phenoxypiperidin-1-yl)-3-methyl-6,7-dihydro-5H-pyrrolo[3,4-b]pyridin-5-one]
12 | 0.627 µM | Cc1cc2c(nc1N1CCC(OC[C@]3(C)C[C@@H]3F)CC1)CNC2=O (single isomer, unassigned) [Example 160A]
13 | 0.096 µM | Cc1cc2c(nc1N1CCC(OC[C@@]3(C)C[C@H]3F)CC1)CNC2=O (single isomer, unassigned) [Example 160B]
14 | 0.058 µM | Cc1cc2c(nc1N1CCC(OC[C@]3(C)C[C@H]3F)CC1)CNC2=O (single isomer, unassigned) [Example 160C]
15 | 0.037 µM | Cc1cc2c(nc1N1CCC(OC[C@@]3(C)C[C@@H]3F)CC1)CNC2=O (single isomer, unassigned) [Example 160D]
16 | 0.467 µM | Cc1cc2c(nc1N1CC[C@H](Oc3cccnc3)[C@H](F)C1)CNC2=O (single isomer, unassigned) [Example 165, 2-((3R,4S) or (3S,4R)-3-fluoro-4-(pyridin-3-yloxy)piperidin-1-yl)-3-methyl-6,7-dihydro-5H-pyrrolo[3,4-b]pyridin-5-one]
17 | 0.09 µM | Cc1cc2c(nc1N1CC[C@@H](Oc3cccnc3)[C@@H](F)C1)CNC2=O (single isomer, unassigned) [Example 166, 2-((3S,4R) or (3R,4S)-3-fluoro-4-(pyridin-3-yloxy)piperidin-1-yl)-3-methyl-6,7-dihydro-5H-pyrrolo[3,4-b]pyridin-5-one]
18 | 0.209 µM | Cc1cc2c(nc1N1CCC(Oc3ccc4c(c3)C[S+]([O-])C4)CC1)CNC2=O (single isomer, unassigned) [Example 168A]
19 | 0.166 µM | Cc1cc2c(nc1N1CCC(Oc3ccc4c(c3)C[S+]([O-])C4)CC1)CNC2=O (single isomer, unassigned) [Example 168B]
20 | 0.055 µM | Cc1cc2c(nc1N1CCC(OCC(O)C(F)(F)F)CC1)CNC2=O (single isomer, unassigned) [Example 181A]

Row | EC50 | Molecule
21 | 0.183 µM | Cc1cc2c(nc1N1CCC(OCC(O)C(F)(F)F)CC1)CNC2=O (single isomer, unassigned) [Example 181B]
22 | 1.47 µM | Cc1cc2c(nc1N1CCC(OCC3(C)CC3C#N)CC1)CNC2=O (single isomer, unassigned) [Example 191A]
23 | 30 µM | Cc1cc2c(nc1N1CCC(OCC3(C)CC3C#N)CC1)CNC2=O (single isomer, unassigned) [Example 191B]
24 | 0.312 µM | Cc1cc2c(nc1N1CCC(OCC3(C)CC3C#N)CC1)CNC2=O (single isomer, unassigned) [Example 193A]
25 | 0.875 µM | Cc1cc2c(nc1N1CCC(OCC3(C)CC3C#N)CC1)CNC2=O (single isomer, unassigned) [Example 193B]
26 | 0.304 µM | CCc1cc2c(nc1N1CC[C@@H](Oc3cccnc3)[C@@H](F)C1)CNC2=O (single isomer, unassigned) [Example 215]
27 | 0.888 µM | CCc1cc2c(nc1N1CC[C@@H](Oc3cccnc3)[C@@H](F)C1)CNC2=O (single isomer, unassigned) [Example 216, 3-ethyl-2-((3R,4S)- or (3S,4R)-3-fluoro-4-(pyridin-3-yloxy)piperidin-1-yl)-6,7-dihydro-5H-pyrrolo[3,4-b]pyridin-5-one]
28 | 0.078 µM | CCOc1ccc(OC2CCN(c3nc4c(cc3C)C(=O)N[C@@H]4CCO)CC2)cn1 (single isomer, unassigned) [Example 234B]
29 | 0.087 µM | Cc1cc2c(nc1N1CCC(Oc3ccc4c(c3)COC4)CC1)CN(CC(C)O)C2=O (single isomer, unassigned) [Example 238A, (R) or (S)-2-(4-((1,3-dihydro-2-benzofuran-5-yl)oxy)piperidin-1-yl)-6-(2-hydroxypropyl)-3-methyl-6,7-dihydro-5H-pyrrolo[3,4-b]pyridin-5-one]
30 | 0.108 µM | COc1ccc(OC2CCN(c3nc4c(cc3C)C(=O)N([C@H](C)CO)C4)CC2)cn1 (single isomer, unassigned) [Example 264B]
31 | 0.04 µM | COc1ccc(OC2CCN(c3nc4c(cc3C)C(=O)N([C@@H](C)CO)C4)CC2)cn1 (single isomer, unassigned) [Example 264C]
32 | 0.941 µM | COc1ccc(OC2CCN(c3nc4c(cc3C)C(=O)N[C@H]4CO)CC2)cn1 (single isomer, unassigned) [Example 271A]
33 | 0.038 µM | COc1ccc(OC2CCN(c3nc4c(cc3C)C(=O)N[C@@H]4CO)CC2)cn1 (single isomer, unassigned) [Example 271B]
34 | 4.5 µM | COc1ccc(OC2CCN(c3nc4c(cc3C)C(=O)N(C)[C@H]4CO)CC2)cn1 (single isomer, unassigned) [Example 273A]
35 | 0.023 µM | COc1ccc(OC2CCN(c3nc4c(cc3C)C(=O)N(C)[C@@H]4CO)CC2)cn1 (single isomer, unassigned) [Example 273B]
36 | 3.87 µM | COc1ccc(OC2CCN(c3nc4c(cc3C)C(=O)N(C)[C@@]4(C)CO)CC2)cn1 (single isomer, unassigned) [Example 287A]
37 | 0.214 µM | COc1ccc(OC2CCN(c3nc4c(cc3C)C(=O)N(C)[C@]4(C)CO)CC2)cn1 (single isomer, unassigned) [Example 287B]
38 | 0.022 µM | Cc1cc2c(nc1N1CCC(Oc3ccc4c(c3)C[C@@H](O)C4)CC1)CNC2=O (single isomer, unassigned) [Example 324A]
39 | 0.028 µM | Cc1cc2c(nc1N1CCC(Oc3ccc4c(c3)C[C@H](O)C4)CC1)CNC2=O (single isomer, unassigned) [Example 324B]
40 | 1.14 µM | Cc1cc2c(nc1N1CCC(Oc3cnc4c(c3)CC[C@@H]4O)CC1)CNC2=O (single isomer, unassigned) [Example 324C]

Row | Molecule | EC50
41 | COc1ccc(OC2[C@@H]3C[C@H]2CN(c2nc4c(cc2C)C(=O)NC4)C3)cn1 (single isomer, unassigned) [Example 185A] | 8.63 µM
42 | COc1ccc(OC2[C@@H]3C[C@H]2CN(c2nc4c(cc2C)C(=O)NC4)C3)cn1 (single isomer, unassigned) [Example 185B] | 2.53 µM
